Source: ChEMBL document CHEMBL1154483, “Mechanistic aspects of benzothiazepines: a class of antiarrhythmic drugs” (Eur J Med Chem, 2009)

Assay: Inhibition of calcium channel

Row | SMILES | IC50
1 | COc1ccc([C@@H]2Sc3ccccc3N(CCN(C)CCc3ccc(OC)c(OC)c3)C(=O)[C@@H]2OC(C)=O)cc1 | 6.5 nM
2 | COc1ccc([C@@H]2Sc3ccccc3N(CCN(C)C)C(=O)[C@@H]2OC(C)=O)cc1 [DILTIAZEM] | 337 nM
